Measured values published in patent US20230398146A1, “IMMUNE MODULATION OF MYELOID DERIVED SUPPRESSIVE CELL FUNCTION FOR CANCER TREATMENT” (SURGE Therapeutics, Inc., priority 2020, published 2023).

Test system: 4T1-Luc2 cells
Test: Survival of mice after resection of orthotopic 4T1-Luc2 breast tumors, composition administered at the tumor resection site
Type: in vivo, mouse
Experimental: In some embodiments, an animal model of cancer can be used to identify and/or characterize composition comprising a polymeric biomaterial and a modulator of myeloid-derived suppressive cells. For example, a tumor resection is performed on a tumor-bearing mouse, and a composition described herein, e.g., composition comprising a polymeric biomaterial and a modulator of myeloid-derived suppressive cells is administered to the tumor resection site. The survival of treated subjects is then monitored. In some embodiments, a composition comprising a polymeric biomaterial and a modulator of myeloid-derived suppressive cells is considered and/or determined to be useful in accordance with the present disclosure when it is characterized, in that when tested in vivo as described in the present Example, it extends survival of a treated subject, e.g., by at least 1 week, at least 2 weeks, at least 3 weeks, at least 4 weeks, at least 2 months, at least 3 months, at least 4 months, at least 5 months, at least 6 months, or longer, as compared to that observed in a control reference (e.g., a control in which a composition comprising a polymeric biomaterial and a modulator of myeloid-derived suppressive cells is not administered. For example, in some embodiments, a control reference may be administration of a polymeric biomaterial in the absence of a modulator of myeloid-derived suppressive cell function. In some embodiments, a control reference may be administration of a modulator of myeloid-derived suppressive cell function in solution. Alternatively, in some embodiments, a provided composition comprising a biomaterial preparation and a modulator of myeloid-derived suppressive cells is considered and/or determined to be useful for treatment of cancer (including, e.g., prevention or reduction in the likelihood of tumor relapse or metastasis) in accordance with the present disclosure when such a composition, after administration at a tumor resection site, reduces incidence of tumor recurrence and/or metastasis after the tumor resection (e.g., at least 1 month after tumor resection when the test subject is a mouse subject, or at least 3 months after tumor resection when the test subject is a human subject), for example, by at least 10% or more (comprising, e.g., at least 20%, at least 30%, at least 40%, at least 50%, at least 60%, at least 70%, at least 80%, at least 90%, or more) as compared to that observed in a control reference (e.g., as described above).
In some embodiments, female BALB/cJ mice are inoculated orthotopically with 100,000 breast cancer cells (e.g., 4T1-Luc2 cells). Ten days later, tumors are surgically resected, and either (i) a composition described herein, e.g., a composition comprising a polymeric biomaterial and a modulator of myeloid-derived suppressive cells, (ii) a composition comprising a polymeric biomaterial without a modulator of myeloid-derived suppressive cells, and/or (iii) a negative control composition (e.g., a buffered solution without such a composition) is administered into the resection cavity. Animal survival can be monitored to inspect for induction of antitumor immunity. In some embodiments, to confirm that a composition comprising a polymeric biomaterial and a modulator of myeloid-derived suppressive cells functions mechanistically, for example, by modulating recruitment and/or survival and/or proliferation of myeloid-derived suppressive cells (e.g., neutrophils), animal survival may be monitored following inhibition of recruitment and/or survival and/or proliferation of myeloid-derived suppressive cells (e.g., neutrophils). In some embodiments, to confirm that an administered composition comprising a polymeric biomaterial and a modulator of myeloid-derived suppressive cells functions mechanistically by modulating myeloid-derived suppressive cell effector function, animal survival may be monitored following modulating myeloid-derived suppressive cell effector function (e.g., as described herein). […]

[1] = 10% w/w poloxamer 407 + 3% w/w 187 kDa HA with agent, 1.25 mg/mouse, at tumor resection site (day 10), vs same biomaterial without agent and vs 15% w/w poloxamer 407

Question: How did the “survival of tumor resection mice” value [1] turn out when Cc1c(C#N)cccc1-c1cc(-c2cn(Cc3cccc(C(C)(C)O)n3)nn2)nc(N)n1 [AB928, etrumadenant] was run?
Answer: Its value is “survived over a longer period of time”.

Question: O=C(c1ccccc1)c1ccc2n1CCC2C(=O)O (stereo not shown) [Ketorolac] was tested. Which “survival of tumor resection mice” value (FIG. 2A: 10% w/w poloxamer 407 + 3% w/w 187 kDa HA with agent, 6 mg/mouse, at tumor resection site, vs same biomaterial without agent and vs 15% w/w poloxamer 407) did it give?
Answer: Its value is “survived over a longer period of time”.

Question: And the “survival of tumor resection mice” value (FIG. 2B: 10% w/w poloxamer 407 + 3% w/w 187 kDa HA with agent, 9 mg/mouse, at tumor resection site, vs same biomaterial without agent and vs 15% w/w poloxamer 407)?
Answer: Its value is “survived over a longer period of time”.

Question: And the “survival of tumor resection mice” value (FIG. 3: 9% w/w poloxamer 407 + 2.2% w/w 766 kDa HA with agent, 1.2 mg/mouse, at tumor resection site, vs same biomaterial without agent)?
Answer: Its value is “survived over a longer period of time”.

Question: For c1cc(CN2CCCNCCNCCCNCC2)ccc1CN1CCCNCCNCCCNCC1 [Plerixafor], which “survival of tumor resection mice” value [1] is on record?
Answer: Its value is “survived over a longer period of time”.

Question: With CC/C=C\C[C@H](O)[C@H](O)/C=C/C=C/C=C\C=C\[C@@H](O)C/C=C\CCC(=O)O [Resolvin D2] as the molecule, how does the “survival of tumor resection mice” value (FIG. 4: 10% w/w poloxamer 407 + 3% w/w 187 kDa HA with agent, 2.5 μg/mouse, at tumor resection site, vs same biomaterial without agent and vs 15% w/w poloxamer 407) read?
Answer: The value was “survived over a longer period of time”.

Question: For CCCCC(=O)N(Cc1ccc(-c2ccccc2-c2nnn[nH]2)cc1)[C@H](C(=O)O)C(C)C [Valsartan], which “survival of tumor resection mice” value (FIG. 7: 11% w/w poloxamer 407 + 1.8% w/w 766 kDa HA with agent, 1 mg/mouse, at tumor resection site, vs same biomaterial without agent) is on record?
Answer: The value was “survived over a longer period of time”.
